Assay [1] has as its system platelets of guinea-pig. The experiment in a line: Inhibition of the platelet aggregation induced by U46619 (BORN test), guinea-pig platelets. The format is cell-based. As to conditions: read-out: PLATELET AGGREGATION GUINEA-PIG IC 50. The text has this:
(A) Inhibition of the platelet aggregation induced by U46619, a stable analogue of TXA2 (9,11-dideoxy-11α,9α-epoxymethanoprostaglandine F2 α):
The tests determine a concentration of compound which inhibits at 50% (CI50) a liminar aggregation induced by U46619. The activities of the compounds of the present invention are given in example 108.
(§1) The products of examples 1 to 107 have been tested for platelet aggregation on guinea-pig and on the contraction of the aorta in rat as described previously.

In assay [2] the test system is rat aorta. In words: Inhibition of the U46619 induced rat aorta vasoconstriction. The format is cell-based. Particulars: Rattus norvegicus, contraction by U46619 (142 nM), rat thoracic aorta, 37° C.; read-out: VASOCONSTRICTION RAT AORTA IC 50. How it is done: (B) Inhibition of the U46619 induced rat aorta vasoconstriction:
male rats weighing about 300 g are put to death by euthanasia; the thoracic aorta is rapidly taken out. A sample of about 1 cm is cut into a spiral, and placed in a vat containing 20 ml of nutrient medium (Krebs-Henseleit) kept a 37° C. and oxygenated (O2 95%, CO2 5%). The contractions are recorded with an isotonic strain gauge. After a rest of 45 mn, supramaximum contractions are provoked by the addition of an analogue of TXA2 (U46619: 142 nM) to the survival medium. A plateau is generally reached after 10 mn of contact, the latter not exceeding 25 mn. A rest of 30 mn and a plurality of rinses take place after each contraction. The products are added 10 mn after U46619 and allowed to rest 15 mn, after which delay the inhibition is measured. The inhibitory concentration 50 (IC) is determined for each compound studied and on a minimum of 3 aortas. The activities of the compounds of the present invention are described in example 108.
as §1

Like-named read-outs stand apart in the source and are kept apart here. Bounds are passed on as bounds.

Consider `O=C(O)Cc1ccc(C[C@@H]2CCC[C@H]2NS(=O)(=O)c2ccc(Cl)cc2)cc1` (relative stereo) [Example 1, Trans-4-[[2-[[(4-chlorophenyl)sulfonyl]amino]cyclopentyl]methyl]-benzeneacetic acid], for which the IC50 in assay [1] (Cavia porcellus, Platelet) was determined as 690 nM.

Take `O=C(O)Cc1ccc(C[C@@H]2CCC[C@H]2NS(=O)(=O)c2ccc(Cl)cc2)cc1` (relative stereo) [Example 2, Sodium trans-4-[[2-[[(4-chlorophenyl)sulfonyl]amino]-cyclopentyl]methyl]benzene-acetate]: the values for the IC50 in assay [2] and in assay [1] were 70 nM and 720 nM, respectively.

For the molecule `O=C(O)Cc1ccc(C[C@@H]2CCC[C@@H]2NS(=O)(=O)c2ccc(Cl)cc2)cc1` (relative stereo) [Example 3, Cis-4-[[2-[[(4-chlorophenyl)sulfonyl]amino]cyclopentyl]methyl]benzeneaceticacid], the IC50 turned out to be 60 nM in assay [2] and 600 nM in assay [1] (Cavia porcellus, Platelet).

In the case of `O=C(O)Cc1ccc(C[C@@H]2CCC[C@H]2NS(=O)(=O)c2ccc(F)cc2)cc1` (relative stereo) [Example 4, Trans-4-[[2-[[(4-fluorophenyl)sulfonyl]amino]cyclopentyl]methyl]benzeneacetic acid], the IC50 in assay [2] is 200 nM; in assay [1] (Cavia porcellus, Platelet) it was 23000 nM.

With `O=C(O)Cc1ccc(C[C@@H]2CCC[C@H]2NS(=O)(=O)c2ccccc2)cc1` (relative stereo) [Example 6, Trans-4-[[2-[[(phenyl)sulfonyl]amino]cyclopentyl]methyl]benzeneacetic acid], the IC50 in assay [2] was found to be 560 nM; in assay [1] (Cavia porcellus, Platelet) it was 6300 nM.

With `Cc1ccc(S(=O)(=O)N[C@@H]2CCC[C@H]2Cc2ccc(CC(=O)O)cc2)cc1` (relative stereo) [Example 7, Trans-4-[[2-[[(4-methylphenyl)sulfonyl]amino]cyclopentyl]methyl]-benzeneacetic acid], the IC50 turned out to be 300 nM in assay [2] and 3300 nM in assay [1] (Cavia porcellus, Platelet).

Take `O=C(O)Cc1ccc([C@@H]2CCCC[C@H]2NS(=O)(=O)c2ccc(Cl)cc2)cc1` (relative stereo) [Example 10, Trans-4-[2-[[(4-chlorophenyl)sulfonyl]amino]cyclohexyl]benzeneacetic acid]: the IC50 in assay [2] worked out at 5000 nM; in assay [1] (Cavia porcellus, Platelet), 1300 nM.

`O=C(O)Cc1ccc(C[C@@H]2CCCC[C@H]2NS(=O)(=O)c2ccc(Cl)cc2)cc1` (relative stereo) [Example 11, Trans-4-[[2-[[(4-chlorophenyl)sulfonyl]amino]cyclohexyl]methyl]benzeneacetic acid]: the IC50 in assay [2] came out at 50 nM; in assay [1] (Cavia porcellus, Platelet) it was 390 nM.

Turning to `O=C(O)Cc1ccc(OC2CCCC2NS(=O)(=O)c2ccc(Cl)cc2)cc1` (centres unmarked) [Example 9, 4-[2-[[(4-chlorophenyl)sulfonyl]amino]cyclopentyloxy]benzeneacetic acid], the IC50 is 1000 nM in assay [2] and greater than 20000 nM in assay [1] (Cavia porcellus, Platelet).

In the case of `O=C(O)Cc1ccc(C2(CNS(=O)(=O)c3ccc(Cl)cc3)CC2)cc1` [Example 12, 4-[1-[[[(4-Chlorophenyl)sulfonyl]amino]methyl]cyclopropyl]benzeneacetic acid], the IC50 in assay [2] came out at 70 nM; in assay [1] (Cavia porcellus, Platelet), 1800 nM.

As to `O=C(O)Cc1ccc(C2(CNS(=O)(=O)c3ccc(Cl)cc3)CCC2)cc1` [Example 13, 4-[1[[[(4-Chlorophenyl)sulfonyl]amino]methyl]cyclobutyl]benzeneacetic acid], the IC50 is 60 nM in assay [2] and 680 nM in assay [1] (Cavia porcellus, Platelet).

Turning to `O=C(O)Cc1ccc(C2(CNS(=O)(=O)c3ccc(Cl)cc3)CCCC2)cc1` [Example 14, 4-[1-[[[(4-Chlorophenyl)sulfonyl]amino]methyl]cyclopentyl]benzeneacetic acid], the IC50 in assay [2] was found to be 70 nM; in assay [1] (Cavia porcellus, Platelet), 5500 nM.

For the molecule `O=C(O)Cc1ccc(CC2(CNS(=O)(=O)c3ccccc3)CCCC2)cc1` [Example 15, 4-[[1-[[[(Phenyl)sulfonyl]amino]methyl]cyclopentyl]methyl]benzeneacetic acid], the IC50 in assay [2] was determined as 300 nM; in assay [1] (Cavia porcellus, Platelet), 1100 nM.

Turning to `O=C(O)Cc1ccc(CC2(CNS(=O)(=O)c3ccc(F)cc3)CCCC2)cc1` [Example 16, 4-[[1-[[[(4-Fluorophenyl)sulfonyl]amino]methyl]cyclopentyl]methyl]benzeneacetic acid], the IC50 turned out to be 200 nM in assay [2] and 2400 nM in assay [1] (Cavia porcellus, Platelet).

With `CC(=O)c1ccc(CC2(CNS(=O)(=O)c3ccc(Cl)cc3)CCCC2)cc1` [Example 17, N-[[1-[(4-Acetylphenyl)methyl]cyclopentyl]methyl]-4-chlorobenzenesulfonamide], the IC50 in assay [2] is greater than 1000 nM; in assay [1] (Cavia porcellus, Platelet) it was greater than 20000 nM.

For `COC(=O)Cc1ccc(CC2(CNS(=O)(=O)c3ccc(Cl)cc3)CCCC2)cc1` [Example 18, Methyl 4-[[1-[[[(4-chlorophenyl)sulfonyl]amino]methyl]cyclopentyl]methyl]benzeneacetate], the IC50 is greater than 1000 nM in assay [2] and 660 nM in assay [1] (Cavia porcellus, Platelet).

Take `O=C(O)Cc1ccc(CC2(CNS(=O)(=O)c3ccc(Cl)cc3)CCCC2)cc1` [Example 19, 4-[[1-[[[(4-Chlorophenyl)sulfonyl]amino]methyl]cyclopentyl]methyl]benzeneacetic acid]: the IC50 in assay [2] was 100 nM; in assay [1] (Cavia porcellus, Platelet), 260 nM.

With `Cc1ccc(S(=O)(=O)NCC2(Cc3ccc(CC(=O)O)cc3)CCCC2)cc1` [Example 24, 4-[[1-[[[(4-methylphenyl)sulfonyl]amino]methyl]cyclopentyl]methyl]benzeneacetic acid], the IC50 in assay [2] amounted to 300 nM; in assay [1] (Cavia porcellus, Platelet), 570 nM.

Take `O=C(O)c1ccc(CC2(CNS(=O)(=O)c3ccc(Cl)cc3)CCCC2)cc1` [Example 25, 4-[[1-[[[(4-Chlorophenyl)sulfonyl]amino]methyl]cyclopentyl]methyl]benzoic acid]: the IC50 in assay [2] stood at 60 nM; in assay [1] (Cavia porcellus, Platelet), 1500 nM.

As to `O=C(O)Cc1ccc(CC2(CNS(=O)(=O)c3ccc(Cl)c(Cl)c3)CCCC2)cc1` [Example 26, 4-[[1-[[[(3,4-Dichlorophenyl)sulfonyl]amino]methyl]cyclopentyl]methyl]benzeneacetic acid], the IC50 in assay [2] turned out to be 460 nM; in assay [1] (Cavia porcellus, Platelet) it was 3100 nM.

On to `O=C(O)Cc1ccc(CC2(CNS(=O)(=O)c3ccc(Cl)cc3)CCC2)cc1` [Example 27, 4-[[1-[[[(4-chlorophenyl)sulfonyl]amino]methyl]cyclobutyl]methyl]benzeneacetic acid], for which the IC50 in assay [2] amounted to 20 nM; in assay [1] (Cavia porcellus, Platelet) it was 290 nM.

For the molecule `O=S(=O)(NCC1(Cc2ccc(CCO)cc2)CCCC1)c1ccc(Cl)cc1` [Example 28, 4-Chloro-N-[[1-[[4-(2-hydroxyethyl)phenyl]methyl]cyclopentyl]methyl]benzenesulfonamide], the IC50 is greater than 1000 nM in assay [2] and 2600 nM in assay [1] (Cavia porcellus, Platelet).

Regarding `O=C(O)Cc1ccc(C2(CNS(=O)(=O)c3ccc(Cl)cc3)CCCCC2)cc1` [Example 29, 4-[1-[[[(4-Chlorophenyl)sulfonyl]amino]methyl]cyclohexyl]benzeneacetic acid], the IC50 in assay [2] is 1000 nM; in assay [1] (Cavia porcellus, Platelet), 5300 nM.

Regarding `O=C(O)CCC(=O)c1ccc(CC2(CNS(=O)(=O)c3ccc(Cl)cc3)CCCC2)cc1` [Example 30, 4-[4-[[1-[[[(4-Chlorophenyl)sulfonyl]amino]methyl]cyclopentyl]methyl]phenyl]-4-oxobutanoic acid], the IC50 in assay [2] was found to be 1000 nM; in assay [1] (Cavia porcellus, Platelet), 920 nM.

Consider `O=C1CCC(c2ccc(CC3(CNS(=O)(=O)c4ccc(Cl)cc4)CCCC3)cc2)=NN1` [Example 31, 4-Chloro-N-[[1-[[4-(4,5-dihydro-3-oxo-2H-pyridazin-6-yl)phenyl]methyl]cyclopentyl]methyl]-benzenesulfonamide], for which the IC50 is no less than 1000 nM in assay [2] and 2500 nM in assay [1] (Cavia porcellus, Platelet).

With `CS(=O)(=O)c1ccc(S(=O)(=O)NCC2(Cc3ccc(CCO)cc3)CCCC2)cc1` [Example 44, N-[[1-[[4-(2-Hydroxyethyl)phenyl]methyl]cyclopentyl]methyl]-4-methylsulfonylbenzenesulfonamide], the IC50 in assay [1] (Cavia porcellus, Platelet) was greater than 5000 nM.

Consider `O=S(=O)(NCC1(Cc2ccc(CCO)cc2)CCCC1)c1ccc(OC(F)(F)F)cc1` [Example 45, N-[[1-[[4-(2-Hydroxyethyl)phenyl]methyl]cyclopentyl]methyl]-4-trifluoromethoxybenzenesulfonamide], for which the IC50 in assay [1] (Cavia porcellus, Platelet) was greater than 5000 nM.

Take `O=C(O)Cc1ccc(CC2(CNS(=O)(=O)c3ccc4ccccc4c3)CCCC2)cc1` [Example 102, 4-[[1-[[[(Naphthalen-2-yl)sulfonyl]amino]methyl]cyclopentyl]methyl]benzeneacetic acid]: the IC50 in assay [1] (Cavia porcellus, Platelet) is 1000 nM.

As for `O=C(O)Cc1ccc(CC2(CNS(=O)(=O)c3cccc4cccnc34)CCCC2)cc1` [Example 106, 4-[[1-[[[(Quinol-8-yl)sulfonyl]amino]methyl]cyclopentyl]methyl]benzeneacetic acid], the IC50 in assay [1] (Cavia porcellus, Platelet) was greater than 5000 nM.

Values taken from patent US5387709A, “Substituted sulfonamides, process of preparation and medicines containing same” (Lipha Lyonnaise Industrielle Pharmaceutique, priority 1990, dated 1995).
